US20180273538A1, “PYRROLO[2,3-d]PYRIMIDINE DERIVATIVES, A PROCESS FOR THEIR PREPARATION AND PHARMACEUTICAL COMPOSITIONS CONTAINING THEM” (LES LABORATOIRES SERVIER, priority 2015, published 2018)

Columns and labels:
[1] = target: T1, DYRK1A (Homo sapiens, UniProt Q13627); assay: Kinase TR-FRET assay, DYRK1A; assay type: biochemical
T1 construct: full-length human kinases from Carna Biosciences; purchased Carna Biosciences 04-130

[2] = target: T2, His-TEV-DYRK1A Kinase domain (aa127-485) (Homo sapiens, UniProt Q13627); assay: Kinase ADP assay (ADP Hunter Plus); assay type: biochemical
T2 construct: His-TEV-DYRK1A Kinase domain (aa127-485); His (N); TEV cleavage site (N)

[3] = target: T3, DYRK1B (Homo sapiens, UniProt Q9Y463); assay: Kinase TR-FRET assay, DYRK1B; assay type: biochemical
T3 construct: full-length human kinases from Carna Biosciences; purchased Carna Biosciences 04-131

[4] = target: T4, phospho-Ser520-DYRK1A (Homo sapiens, UniProt Q13627); assay: Cellular DYRK1A autophosphorylation assay in U2-OS cells; assay type: cell-based; settings: 5 hours exposure, read-out: IC50 (μM) P-Ser520-Dyrk1A-Cell assay
T4 construct: full-length, wild-type human DYRK1A (NM_001396) with an HA tag; expressed in transfected cells; host or cells: human U2-OS osteosarcoma cells, pcDNA3.1 plasmid

[5] = target: T5, CLK1 (Homo sapiens, UniProt P49759); assay: Kinase TR-FRET assay, CLK1; assay type: biochemical
T5 construct: full-length human kinases from Carna Biosciences; purchased Carna Biosciences 04-126
T5 sequence (P49759 1-526 isoform P49759-3): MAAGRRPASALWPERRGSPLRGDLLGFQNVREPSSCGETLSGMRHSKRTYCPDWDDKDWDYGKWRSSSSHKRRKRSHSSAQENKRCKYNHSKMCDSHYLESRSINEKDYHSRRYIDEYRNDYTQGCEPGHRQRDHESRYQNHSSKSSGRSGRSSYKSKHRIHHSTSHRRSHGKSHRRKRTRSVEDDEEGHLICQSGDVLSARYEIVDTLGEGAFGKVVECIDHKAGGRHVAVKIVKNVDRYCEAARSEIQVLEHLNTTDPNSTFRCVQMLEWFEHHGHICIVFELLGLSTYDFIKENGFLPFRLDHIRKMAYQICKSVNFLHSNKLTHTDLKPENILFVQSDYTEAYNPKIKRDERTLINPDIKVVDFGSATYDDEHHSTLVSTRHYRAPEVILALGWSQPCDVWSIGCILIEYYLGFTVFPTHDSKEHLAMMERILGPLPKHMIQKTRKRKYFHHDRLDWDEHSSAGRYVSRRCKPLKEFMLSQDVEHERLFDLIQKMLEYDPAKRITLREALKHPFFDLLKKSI

T3 sequence (Q9Y463 whole entry): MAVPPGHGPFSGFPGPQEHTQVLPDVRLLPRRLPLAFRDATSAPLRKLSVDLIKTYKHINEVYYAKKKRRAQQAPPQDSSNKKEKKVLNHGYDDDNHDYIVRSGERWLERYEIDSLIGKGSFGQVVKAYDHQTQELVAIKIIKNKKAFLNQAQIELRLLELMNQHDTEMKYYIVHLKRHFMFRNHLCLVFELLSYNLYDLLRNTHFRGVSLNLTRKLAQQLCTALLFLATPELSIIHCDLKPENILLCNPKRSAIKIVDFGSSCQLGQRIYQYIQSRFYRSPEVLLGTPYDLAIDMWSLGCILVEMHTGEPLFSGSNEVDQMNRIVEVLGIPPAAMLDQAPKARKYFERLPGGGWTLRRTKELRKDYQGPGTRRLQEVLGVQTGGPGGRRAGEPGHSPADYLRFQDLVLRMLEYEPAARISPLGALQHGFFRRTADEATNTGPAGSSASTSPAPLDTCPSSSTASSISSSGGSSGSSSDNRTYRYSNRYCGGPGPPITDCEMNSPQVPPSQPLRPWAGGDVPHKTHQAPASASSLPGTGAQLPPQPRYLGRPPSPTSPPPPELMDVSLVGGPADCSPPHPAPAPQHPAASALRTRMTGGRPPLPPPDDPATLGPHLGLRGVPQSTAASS

SMILES | IC50 [1] [µM] | IC50 [2] [µM] | IC50 [3] [µM] | IC50 [4] [µM] | IC50 [5] [µM]
Cc1cc(-c2c[nH]c3nc(C)nc(OCc4ccsc4)c23)ccn1 [Example 5, 2-methyl-5-(2-methylpyridin-4-yl)-4-(thiophen-3-ylmethoxy)-7H-pyrrolo[2,3-d]pyrimidine] | 0.0094 | 0.015 | 0.0005 | – | –
Cc1nc(OCc2ccccc2)c2c(-c3ccncc3)c[nH]c2n1 [Example 11, 4-(benzyloxy)-2-methyl-5-(pyridin-4-yl)-7H-pyrrolo[2,3-d]pyrimidine] | 0.0173 | 0.012 | 0.0132 | – | –
Cc1nc(OCC2CCCC2)c2c(-c3ccncc3)c[nH]c2n1 [Example 15, 4-(cyclopentylmethoxy)-2-methyl-5-(pyridin-4-yl)-7H-pyrrolo[2,3-d]pyrimidine] | 0.0355 | 0.032 | 0.0143 | – | –
Cc1nc(OCc2cc(C)on2)c2c(-c3ccncc3)c[nH]c2n1 [Example 16, 2-methyl-4-[(5-methyl-1,2-oxazol-3-yl)methoxy]-5-(pyridin-4-yl)-7H-pyrrolo[2,3-d]pyrimidine] | 0.0149 | 0.011 | 0.0178 | 0.14 | 0.0328
Cc1nc(OCc2ccc(C#N)cc2)c2c(-c3ccnc(N)c3)c[nH]c2n1 [Example 25, 4-({[5-(2-aminopyridin-4-yl)-2-methyl-7H-pyrrolo[2,3-d]pyrimidin-4-yl]oxy}methyl)benzonitrile] | 0.0031 | 0.012 | 0.0079 | 0.036 | 0.0177
Cc1nc(OCc2ccc(C(C)C)cc2)c2c(-c3ccnc(N)c3)c[nH]c2n1 [Example 27, 4-{2-methyl-4-{(4-{propan-2-yl)benzyl]oxy}-7H-pyrrolo[2,3-d]pyrimidin-5-yl)pyridin-2-amine] | 0.0444 | 0.04 | 0.0522 | – | –
Cc1nc(NC(C)c2c(F)cccc2F)c2c(-c3ccnc(N)c3)c[nH]c2n1 (centres unmarked) [Example 82, 5-(2-aminopyridin-4-yl)-N-[1-(2,6-difluorophenyl)ethyl]-2-methyl-7H-pyrrolo[2,3-d]pyrimidin-4-amine] | 0.001 | 0.045 | 0.0199 | – | –
Cc1nc(N[C@@H]2C[C@H]3CC[C@@H]2C3)c2c(-c3ccnc(N)c3)c[nH]c2n1 [Example 83, 5-(2-aminopyridin-4-yl)-N-[(1R,2R,4S)-bicyclo[2.2.1]hept-2-yl]-2-methyl-7H-pyrrolo[2,3-d]pyrimidin-4-amine] | 0.0006 | 0.081 | 0.0404 | – | –
Cc1nc(N2CCc3ccccc3C2)c2c(-c3cc(N)nc(N)c3)c[nH]c2n1 [Example 114, 4-[4-(3,4-dihydroisoquinolin-2(1H)-yl)-2-methyl-7H-pyrrolo[2,3-d]pyrimidin-5-yl]pyridine-2,6-diamine] | – | 0.009 | – | 0.006 | 0.0162
COc1cccc(F)c1CNc1nc(C)nc2[nH]cc(-c3cc(N)nc(N)c3)c12 [Example 116, 4-{4-[(2-fluoro-6-methoxybenzyl)amino]-2-methyl-7H-pyrrolo[2,3-d]pyrimidin-5-yl}pyridine-2,6-diamine] | – | 0.005 | – | 0.0009 | 0.0136
Cc1nc(COc2c(F)cccc2F)c2c(-c3ccnc(N)c3)c[nH]c2n1 [Example 166] | – | 0.025 | – | 0.118 | 0.248
COc1cccc(-c2nc(C)nc3[nH]cc(-c4ccnc(N)c4)c23)c1 [Example 167] | – | 0.015 | – | 0.0444 | 0.042
Cc1nc(-c2ccc3c(c2)OCO3)c2c(-c3ccnc(N)c3)c[nH]c2n1 [Example 179] | – | – | 0.0115 | – | 0.0425
Cc1nc(NCc2c(F)cccc2F)c2c(-c3ccnc(N)n3)c[nH]c2n1 [Example 206, 5-(2-aminopyrimidin-4-yl)-N-(2,6-difluorobenzyl)-2-methyl-7H-pyrrolo[2,3-d]pyrimidin-4-amine] | – | – | 0.0133 | – | 0.0238

More lines, now with the values ahead:

IC50 [1] [µM] | IC50 [2] [µM] | IC50 [3] [µM] | IC50 [4] [µM] | IC50 [5] [µM] | SMILES
0.0215 | 0.01 | 0.0175 | 0.0337 | 0.0245 | Cc1nc(NCc2c(C)cccc2Cl)c2c(-c3ccnc(N)c3)c[nH]c2n1 [Example 58, 5-(2-aminopyridin-4-yl)-N-(2-chloro-6-methylbenzyl)-2-methyl-7H-pyrrolo[2,3-d]pyrimidin-4-amine]
0.0102 | 0.042 | 0.0191 | 0.259 | – | Cc1nc(NCc2cc(C)on2)c2c(-c3ccnc(N)c3)c[nH]c2n1 [Example 59, 5-(2-aminopyridin-4-yl)-2-methyl-N-[(5-methyl-1,2-oxazol-3-yl)methyl]-7H-pyrrolo[2,3-d]pyrimidin-4-amine]
0.0062 | 0.01 | 0.0029 | 0.0115 | 0.0129 | Cc1nc(NCc2c(Cl)cccc2Cl)c2c(-c3ccnc(N)c3)c[nH]c2n1 [Example 61, 5-(2-aminopyridin-4-yl)-N-(2,6-dichlolorobenzyl)-2-methyl-7H-pyrrolo[2,3-d]pyrimidin-4-amine]
0.0186 | 0.008 | 0.0002 | 0.021 | 0.0162 | Cc1nc(NCc2c(F)cccc2Cl)c2c(-c3ccnc(N)c3)c[nH]c2n1 [Example 62, 5-(2-aminopyridin-4-yl)-N-(2-chloro-6-fluorobenzyl)-2-methyl-7H-pyrrolo[2,3-d]pyrimidin-4-amine]
0.0059 | 0.015 | 0.0093 | 0.234 | – | Cc1nc(NCc2ccccc2C(F)(F)F)c2c(-c3ccnc(N)c3)c[nH]c2n1 [Example 64, 5-(2-aminopyridin-4-yl)-2-methyl-N-[2-(trifluoromethyl)benzyl]-7H-pyrrolo[2,3-d]pyrimidin-4-amine]
– | – | 0.0074 | – | 0.0237 | Cc1nc(NCc2ncccc2F)c2c(-c3ccnc(N)c3)c[nH]c2n1 [Example 71, 5-(2-aminopyridin-4-yl)-N-[(3-fluoropyridin-2-yl)methyl]-2-methyl-7H-pyrrolo[2,3-d]pyrimidin-4-amine]
0.0012 | 0.014 | – | 0.111 | 0.0184 | Cc1nc(NCc2cccc(F)c2F)c2c(-c3ccnc(N)c3)c[nH]c2n1 [Example 74, 5-(2-aminopyridin-4-yl)-N-(2,3-difluorobenzyl)-2-methyl-7H-pyrrolo[2,3-d]pyrimidin-4-amine]
0.0063 | 0.01 | 0.0005 | 0.0672 | – | Cc1nc(N[C@@H]2CCc3ccccc32)c2c(-c3ccnc(N)c3)c[nH]c2n1 [Example 76, 5-(2-aminopyridin-4-yl)-N-[(1R)-2,3-dihydro-1H-inden-1-yl]-2-methyl-7H-pyrrolo[2,3-d]pyrimidin-4-amine]
0.0013 | 0.01 | 0.0145 | 0.0721 | 0.0293 | Cc1nc(NCc2ncccc2C(F)(F)F)c2c(-c3ccnc(N)c3)c[nH]c2n1 [Example 78, 5-(2-aminopyridin-4-yl)-2-methyl-N-{[3-(trifluoromethyl)pyridin-2-yl]methyl}-7H-pyrrolo[2,3-d]pyrimidin-4-amine]
0.0021 | 0.008 | 0.008 | 0.105 | – | CCOc1ccccc1CNc1nc(C)nc2[nH]cc(-c3ccnc(N)c3)c12 [Example 79, 5-(2-aminopyridin-4-yl)-N-(2-ethoxybenzyl)-2-methyl-7H-pyrrolo[2,3-d]pyrimidin-4-amine]
0.0059 | 0.004 | 0.0106 | 0.0156 | – | COc1cccc(C(F)(F)F)c1CNc1nc(C)nc2[nH]cc(-c3ccnc(N)c3)c12 [Example 80, 5-(2-aminopyridin-4-yl)-N-[2-methoxy-6-(trifluoromethyl)benzyl]-2-methyl-7H-pyrrolo[2,3-d]pyrimidin-4-amine]
0.0085 | 0.014 | 0.0141 | 0.166 | – | Cc1nc(NCc2cccc(Cl)c2Cl)c2c(-c3ccnc(N)c3)c[nH]c2n1 [Example 81, 5-(2-aminopyridin-4-yl)-N-(2,3-dichlorbenzyl)-2-methyl-7H-pyrrolo[2,3-d]pyrimidin-4-amine]
0.0077 | 0.019 | 0.0112 | 0.155 | 0.0378 | Cc1nc(NCc2cccc(Cl)c2C)c2c(-c3ccnc(N)c3)c[nH]c2n1 [Example 94, 5-(2-aminopyridin-4-yl)-N-(3-chloro-2-methylbenzyl)-2-methyl-7H-pyrrolo[2,3-d]pyrimidin-4-amine]
– | 0.022 | – | 0.192 | 0.0241 | COc1cccnc1CNc1nc(C)nc2[nH]cc(-c3ccnc(N)c3)c12 [Example 98, 5-(2-aminopyridin-4-yl)-N-[(3-methoxypyridin-2-yl)methyl]-2-methyl-7H-pyrrolo[2,3-d]pyrimidin-4-amine]
– | 0.018 | – | 0.177 | 0.0171 | COc1ccccc1[C@H](C)Nc1nc(C)nc2[nH]cc(-c3ccnc(N)c3)c12 [Example 106, 5-(2-aminopyridin-4-yl)-N-[(1S)-1-(2-methoxyphenyl)ethyl]-2-methyl-7H-pyrrolo[2,3-d]pyrimidin-4-amine]
– | 0.071 | – | – | 0.0615 | Cc1nc(NCC(F)(F)c2ccccc2)c2c(-c3ccnc(N)c3)c[nH]c2n1 [Example 123, 5-(2-aminopyridin-4-yl)-N-(2,2-difluoro-2-phenylethyl)-2-methyl-7H-pyrrolo[2,3-d]pyrimidin-4-amine]
– | 0.026 | – | 0.197 | 0.104 | Cc1nc(-c2ccccc2)c2c(-c3ccnc(N)c3)c[nH]c2n1 [Example 163]
